{"source": "patent US11395833B2", "about": "“Process for the preparation and purification of the sodium salt of hyaluronic acid” (priority 2016, dated 2022)", "experiment": "LAL test for bacterial endotoxins (Ph. Eur. 5.0, 2.6.14)", "conditions": "analysis of the product according to Ph. Eur. 5.0", "protocol": "LAL Test: the basis of the LAL test is the capacity of the amebocytes extracted from blood of Limulus polyphemus to gel in the presence of bacterial endotoxins from Gram-negatives, primarily responsible for the pyrogen effect. This test is carried out according to Ph. Eur. 5.0, 2.6.14.", "data": [{"substance": "sodium salt of HA [Example 1]", "values": [{"measurement": "Bacterial endotoxins (LAL test)", "value": 0.012, "unit": "EU/mg"}]}, {"substance": "sodium salt of HA [Example 2]", "values": [{"measurement": "Bacterial endotoxins (LAL test)", "value": 0.012, "unit": "EU/mg"}]}, {"substance": "sodium salt of HA [Example 3]", "values": [{"measurement": "Bacterial endotoxins (LAL test)", "value": 0.0075, "unit": "EU/mg"}]}]}
